Consider 16 compounds from patent publication US12234223B2, “Phthalazinone compound, and preparation method therefor and medical use thereof” (SHANGHAI JEMINCARE PHARMACEUTICALS CO., LTD, priority 2020, dated 2025).

One experiment concerns the target T1, Androgen receptor (Homo sapiens, UniProt P10275).
T1 construct: Dmax: a maximum degradation degree of AR in VCaP cells; endogenous in cells; host or cells: VCaP cells
T1 sequence (P10275 1-920): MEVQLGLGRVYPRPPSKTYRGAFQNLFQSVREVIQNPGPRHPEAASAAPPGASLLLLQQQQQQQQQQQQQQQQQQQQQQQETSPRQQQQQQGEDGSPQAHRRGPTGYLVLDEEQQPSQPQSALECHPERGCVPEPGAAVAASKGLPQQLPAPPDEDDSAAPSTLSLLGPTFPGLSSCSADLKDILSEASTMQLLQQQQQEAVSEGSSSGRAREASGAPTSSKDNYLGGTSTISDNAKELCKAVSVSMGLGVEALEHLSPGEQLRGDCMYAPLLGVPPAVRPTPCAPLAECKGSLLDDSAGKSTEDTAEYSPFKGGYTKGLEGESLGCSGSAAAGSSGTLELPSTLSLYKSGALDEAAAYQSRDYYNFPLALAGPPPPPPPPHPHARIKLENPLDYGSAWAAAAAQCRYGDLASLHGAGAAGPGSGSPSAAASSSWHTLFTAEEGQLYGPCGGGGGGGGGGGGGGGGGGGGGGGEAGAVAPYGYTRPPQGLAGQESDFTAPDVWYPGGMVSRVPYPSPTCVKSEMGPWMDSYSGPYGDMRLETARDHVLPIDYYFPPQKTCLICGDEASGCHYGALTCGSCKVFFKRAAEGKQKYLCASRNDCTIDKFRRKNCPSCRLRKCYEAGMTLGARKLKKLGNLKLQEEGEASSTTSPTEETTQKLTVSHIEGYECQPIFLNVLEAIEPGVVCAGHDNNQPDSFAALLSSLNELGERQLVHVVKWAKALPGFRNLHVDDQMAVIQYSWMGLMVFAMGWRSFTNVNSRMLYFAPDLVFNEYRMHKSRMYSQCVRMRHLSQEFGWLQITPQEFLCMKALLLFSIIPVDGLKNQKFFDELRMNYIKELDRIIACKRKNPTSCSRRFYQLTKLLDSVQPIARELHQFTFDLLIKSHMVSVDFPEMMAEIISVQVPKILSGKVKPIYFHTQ
Nature of the experiment: Androgen receptor In-Cell-Western assay (AR degradation in VCaP cells). Format: cell-based. As to conditions: 24 hours treatment; for DC50: concentration for half the maximum degradation degree of AR in VCaP cells; for Dmax: maximum degradation degree of AR in VCaP cells. How it is done:
This assay evaluated compound performance in VCap cells. An intracellular androgen receptor was assayed by In-Cell-Western according to the assay procedure described below.
In a 96-well cell culture plate (Corning 3599) pretreated by poly-D-Lysin, Vcap cells were seeded to a Vcap cell assay medium [phenol red containing DMEM (Gibco Cat. No.: 11995065); fetal bovine serum FBS (Gibco Cat. No.: 10099141C)] at a volume of 100 μL/well and a cell density of 50,000 cells/well. Cells were cultured for at least two days. • 1. First, cells were treated with a compound. The compound was subjected to a gradient dilution by using DMSO and a cell culture medium, so that DMSO contained in the cell culture plate was diluted to 0.5%: a polypropylene plate was used according to the following protocol: • (1) (i) A 200× stock solution plate was prepared in DMSO; (ii) a 10 mM stock solution was diluted at 1:4 (10 μL stock solution+40 μL DMSO=2000 uM) with DMSO to enter row 2; (iii) a 1:4 (10 μL protac+40 μL DMSO) gradient dilution was performed from row 2 to row 9, row 1 was reserved for a 2000 uM reference compound and row 10 was reserved for DMSO. (iv) There were 8 concentrations (the final concentrations on the 200× plate was 2000 uM, 400 uM, 80 uM, etc.) in total. (2) (i) A 3× stock solution was prepared in the medium; (ii) 3 μL of the 200× stock solution was transferred to 197 μL of the medium (by a 12-channel pipette, from row 1 to row 10), i.e. a 3× stock solution plate. (iii) Uniform mixing was performed for the stock solution plate. (3) (i) The medium of Vcap cells was replaced with a fresh medium, with the medium volume of 100 μL. (ii) The uniformly-mixed 3× stock solution was transferred to the cell culture plate (by the 12-channel pipette, 50 μL of the stock solution was transferred from row 1 to row 10). (iii) The cells were cultured for 24 hours. • 2. The expression level of the intracellular androgen receptor after compound treatment was detected, and assay was performed according to the following method. • (1) (i) An equal volume of 8% paraformaldehyde was added to the cell culture plate for cell fixation. A fixative solution in the cell plate was discarded, and the cell plate was washed three times with PBS. (ii) A Triton solution was prepared (the stock solution was diluted at 1:1000). The solution in the cell plate was discarded, and a volume of 200 μL of a Triton diluent was added to each well. (iii) A 2× blocking solution was prepared (a 10× blocking stock solution was diluted at 1:4). The solution in the cell plate was discarded, and a volume of 100 μL of the 2× blocking solution was added to each well. (iv) A primary antibody solution (Androgen receptor Rabbit mAb, Cell Signaling Technology Cat. No.: 5153; 1:1000 dilution) was prepared. The solution in the cell plate was discarded, a volume of 100 μL of a primary antibody diluent was added to each well, and incubation was performed at 4 degrees overnight. (v) The primary antibody solution was discarded, and the cell plate was washed with 1× Wash buffer (Wash buffer in the present application means a washing buffer solution). (vi) A secondary antibody solution (Goat anti Rabbit IgG (H+L) Secondary Antibody, HRP, Thermo Cat. No.: 31460; 1:5000 dilution) was prepared, and a volume of 100 μL of a secondary antibody diluent was added to each well for incubation. (vii) The secondary antibody solution in the cell plate was discarded, and the cell plate was washed with 1× Wash buffer. (viii) A TMB chromogenic solution (BD Cat. No.: 550534) was prepared, and a volume of 100 μL of the chromogenic solution was added to each well. (ix) A volume of 50 μL of a stop solution (BD Cat. No.: 550534) was added to each well. (x) Absorption values at OD 450 nm and 570 nm were read by EnVision. (2) (i) Normalized analysis was performed for the number of cells in each well. The solution in the cell plate was discarded, and the cell plate was washed three times with wash buffer. […]

The test system of another experiment is VCaP cells. Nature of the experiment: Inhibitory effect on VCaP cell proliferation (Cell Titer Glo). Type of experiment: cell-based. As to conditions: Homo sapiens, 144 h; for IC50: VCaP cells, 5% FBS and 0.1 nM R1881, 6 days; for Emax: maximum degree of VCaP cell proliferation inhibition, 6 days. How it is done:
A tumor cell line Vcap (ATCC Cat. No. CRL-2876) was respectively cultured with DMEM (Gibco Cat. No. 11965-092) medium containing 10% FBS (Gibco Cat. No. 10099-141C). During testing, Vcap cells were replaced with a DMEM culture fluid containing 5% FBS and 0.1 nM R1881 (Sigma Cat. No. R0908). The assay method was as follows:
Vcap cells were seeded to a 384-well plate (Perkin Elmer Cat. No. 6007460) at a cell density of 1200 cells/well and a volume of 20 μL/well; after the cells were incubated overnight in a carbon dioxide incubator (Thermo), the prepared compound solutions with different concentrations were added at a volume of 5 μL/well; meanwhile, a corresponding solvent was provided as a control; after the cells were continuously incubated in the incubator for 6 days, the cell plate and the contents thereof were equilibrated to room temperature; 25 μL of a Cell Titer Glor (Promega Cat. No. G7573) reagent was added to each well; after vibration and uniform mixing, incubation in the dark was performed for 10-30 minutes, and a signal value was detected with Envision microplate reader (PerkinElmer).
A percentage inhibition rate of compound-treated wells was calculated through solvent control wells on the plate, GraphPad prism was used to fit the percentage inhibition rate data corresponding to different concentrations, and IC50 value was calculated by a 4-parameter nonlinear logistic formula.
Emax: a maximum degree of VCaP cell proliferation inhibition. IC50: a compound concentration required to achieve half the maximum degree of VCaP cell proliferation inhibition.

Structures are written as SMILES.

For orientation: DC50 means the concentration at which degradation of the target reaches its halfway point. Low readings indicate degradation at low concentration, high ones degradation only at high concentration. Broadly, the Dmax is the greatest extent of degradation seen. Broadly, the IC50 is the concentration at which inhibition is half-maximal.

For `CC1(C)[C@H](NC(=O)c2ccc(N3CCC(CN4CCN(c5ccc6c(=O)n(C7CCC(=O)NC7=O)ncc6c5)CC4)CC3)cc2)C(C)(C)[C@H]1Oc1ccc(C#N)c(C(F)(F)F)c1` (stereo partly drawn) [Compound 3], at Androgen receptor, half-maximal degradation (DC50) was put at 12 nM and the Dmax was determined as 104%.
In the experiment with VCaP cells, `CC1(C)[C@H](NC(=O)c2cnc(N3CCCC(CN4CCN(c5ccc6c(=O)n(C7CCC(=O)NC7=O)ncc6c5)CC4)CC3)nc2)C(C)(C)[C@H]1Oc1ccc(C#N)c(Cl)c1` (stereo partly drawn) [Compound 25] came in with an IC50 of 27 nM and an Emax of 62%. Also, at Androgen receptor, the DC50 was determined as 10 nM and the Dmax was determined as 116%.
For `CC1(C)[C@H](NC(=O)c2cnc(N3CCC(CN4CCN(c5ccc6c(=O)n(C7CCC(=O)NC7=O)ncc6c5)CC4)CC3)c(F)c2)C(C)(C)[C@H]1Oc1ccc(C#N)c(Cl)c1` (stereo partly drawn) [Compound 26], in that order: 45 nM, 60%, 32 nM and 109%.
Consider `CC1(C)[C@H](NC(=O)c2ccc(N3CCC(CN4CC5CC4CN5c4ccc5c(=O)n(C6CCC(=O)NC6=O)ncc5c4)CC3)cc2)C(C)(C)[C@H]1Oc1ccc(C#N)c(Cl)c1` (stereo partly drawn) [Compound 17], for which, at Androgen receptor, the DC50 came to 6.9 nM and the Dmax came to 88%.
The matching figures for `N#Cc1ccc(O[C@H]2CC[C@H](NC(=O)c3ccc(N4CC(CN5CCN(c6ccc7c(=O)n(C8CCC(=O)NC8=O)ncc7c6)CC5)C4)cc3)CC2)cc1Cl` (stereo partly drawn) [Compound 15]: 16 nM and 84%.
In the experiment with VCaP cells, `CC1(C)[C@H](NC(=O)c2ccc(N3CCC(CN4CCN(c5ccc6c(=O)n(C7CCC(=O)NC7=O)ncc6c5)CC4)CC3)nc2)C(C)(C)[C@H]1Oc1ccc(C#N)c(Cl)c1` (stereo partly drawn) [Compound 4] came in with a half-maximal inhibitory concentration (IC50) of 33 nM and an Emax of 69%. In addition, at Androgen receptor, the DC50 was determined as 6.8 nM and the Dmax came to 98%.
For `CC1(C)[C@H](NC(=O)c2cnc(N3CCC(CCN4CCN(c5ccc6c(=O)n(C7CCC(=O)NC7=O)ncc6c5)CC4)C3)nc2)C(C)(C)[C@H]1Oc1ccc(C#N)c(Cl)c1` (stereo partly drawn) [Compound 23], in that order: 20 nM, 56%, 6.9 nM and 98%.
As to `CC1(C)[C@H](NC(=O)c2ccc(N3CCC(CN4CCN(c5ccc6cnn(C7CCC(=O)NC7=O)c(=O)c6c5)CC4)CC3)cc2)C(C)(C)[C@H]1Oc1ccc(C#N)c(Cl)c1` (stereo partly drawn) [Compound 11], at Androgen receptor, the DC50 amounted to 38 nM and the Dmax is 80%.
For `N#Cc1ccc(O[C@H]2CC[C@H](NC(=O)c3ccc(N4CCC(CN5CCN(c6ccc7c(=O)n(C8CCC(=O)NC8=O)ncc7c6)CC5)CC4)cc3)CC2)cc1Cl` (stereo partly drawn) [Compound 13], in that order: 9.6 nM and 94%.
As for `CC1(C)[C@H](NC(=O)c2ccc(N3CCC(CN4CCN(c5ccc6c(=O)n(C7CCC(=O)NC7=O)ncc6c5)CC4)CC3)c(F)c2)C(C)(C)[C@H]1Oc1ccc(C#N)c(Cl)c1` (stereo partly drawn) [Compound 5], in the experiment with VCaP cells, 37 nM corresponded to half-maximal inhibition (IC50) and the Emax amounted to 62%. In addition, on Androgen receptor, it took 8.4 nM to reach half-maximal degradation (DC50) and the Dmax was 105%.
Consider `CC1(C)[C@H](NC(=O)c2ccc(N3CC(CN4CCN(c5ccc6c(=O)n(C7CCC(=O)NC7=O)ncc6c5)CC4)C3)cc2)C(C)(C)[C@H]1Oc1ccc(C#N)c(Cl)c1` (stereo partly drawn) [Compound 20], for which, in the experiment on VCaP cells, the IC50 amounted to 42 nM and the Emax came to 60%.
For the compound `Cc1cc(O[C@H]2C(C)(C)[C@H](NC(=O)c3ccc(N4CCC(CN5CCN(c6ccc7c(=O)n(C8CCC(=O)NC8=O)ncc7c6)CC5)CC4)cc3)C2(C)C)ccc1C#N` (stereo partly drawn) [Compound 7], at Androgen receptor, the 50% degradation concentration (DC50) turned out to be 15 nM and the Dmax amounted to 92%.
The matching figures for `CC1(C)[C@H](NC(=O)c2ccc(N3CCC(CN4CCN(c5ccc6c(=O)n(C7CCC(=O)NC7=O)ncc6c5)CC4)C3)cc2)C(C)(C)[C@H]1Oc1ccc(C#N)c(Cl)c1` (stereo partly drawn) [Compound 16]: 5.7 nM and 92%.
Turning to `CC1(C)[C@H](NC(=O)c2ccc(N3CCC(CN4CCN(c5ccc6c(=O)n(C7CCC(=O)NC7=O)nc(C(F)(F)F)c6c5)CC4)CC3)cc2)C(C)(C)[C@H]1Oc1ccc(C#N)c(Cl)c1` (stereo partly drawn) [Compound 32], at Androgen receptor, it took 5.2 nM to reach half-maximal degradation (DC50) and the Dmax is 145%.
For `CC1(C)C(NC(=O)c2ccc(N3CCC(CN4CCN(c5ccc6c(=O)n(C7CCC(=O)NC7=O)ncc6c5)CC4)CC3)nn2)C(C)(C)C1Oc1ccc(C#N)c(Cl)c1` (stereo not drawn) [Compound 8], in that order: 8.9 nM and 75%.
For `CC1(C)[C@H](NC(=O)c2cnc(N3CCC(CN4CCN(c5ccc6c(=O)n(C7CCC(=O)NC7=O)ncc6c5)CC4)CC3)cn2)C(C)(C)[C@H]1Oc1ccc(C#N)c(Cl)c1` (stereo partly drawn) [Compound 10], in that order: 35 nM and 87%.
